Results from patent US20150087627A1, “COMBINATION OF KINASE INHIBITORS AND USES THEREOF” (Intellikine LLC, priority 2011, published 2015).

Tests used:
Assay type in all cases: biochemical
[1] = target: T1, PI3K α (p110α/p85α) (Homo sapiens, UniProt P42336); assay: PI 3-Kinase (human) HTRF assay, PI3K α; settings: read-out: PI3K α IC50
T1 construct: purchased Upstate / Millipore Corporation

[2] = target: T2, PI3K β (p110β/p85α) (Homo sapiens, UniProt P42338); assay: PI 3-Kinase (human) HTRF assay, PI3K β; settings: read-out: PI3K β IC50
T2 construct: purchased Upstate / Millipore Corporation
T2 sequence (P42338 whole entry): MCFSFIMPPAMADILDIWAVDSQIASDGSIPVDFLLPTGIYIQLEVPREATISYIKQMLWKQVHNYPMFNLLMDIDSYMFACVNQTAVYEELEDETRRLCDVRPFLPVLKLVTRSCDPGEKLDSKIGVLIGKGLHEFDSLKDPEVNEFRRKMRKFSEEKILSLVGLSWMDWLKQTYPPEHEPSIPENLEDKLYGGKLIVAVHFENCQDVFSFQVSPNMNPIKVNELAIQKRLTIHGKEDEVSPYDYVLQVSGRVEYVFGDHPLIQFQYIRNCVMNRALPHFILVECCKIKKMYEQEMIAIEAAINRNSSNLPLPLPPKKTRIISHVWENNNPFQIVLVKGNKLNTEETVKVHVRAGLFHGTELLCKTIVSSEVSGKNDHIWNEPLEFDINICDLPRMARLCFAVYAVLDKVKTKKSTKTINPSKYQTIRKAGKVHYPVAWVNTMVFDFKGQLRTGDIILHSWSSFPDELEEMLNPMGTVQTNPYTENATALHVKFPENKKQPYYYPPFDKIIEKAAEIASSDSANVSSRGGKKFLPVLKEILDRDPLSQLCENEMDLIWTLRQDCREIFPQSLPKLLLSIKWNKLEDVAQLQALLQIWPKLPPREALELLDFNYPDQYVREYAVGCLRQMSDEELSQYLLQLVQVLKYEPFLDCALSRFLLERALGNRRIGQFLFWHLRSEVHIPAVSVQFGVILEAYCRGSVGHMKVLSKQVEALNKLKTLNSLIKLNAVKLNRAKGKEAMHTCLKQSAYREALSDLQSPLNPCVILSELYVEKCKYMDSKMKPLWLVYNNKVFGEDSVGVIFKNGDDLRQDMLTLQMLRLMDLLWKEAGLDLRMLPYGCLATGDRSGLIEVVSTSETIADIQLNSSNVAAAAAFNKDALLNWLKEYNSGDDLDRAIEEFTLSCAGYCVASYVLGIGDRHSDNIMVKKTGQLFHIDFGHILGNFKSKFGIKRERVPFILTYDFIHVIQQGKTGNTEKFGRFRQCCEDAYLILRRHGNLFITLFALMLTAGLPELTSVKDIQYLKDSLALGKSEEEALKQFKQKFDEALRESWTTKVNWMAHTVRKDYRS
T2 sequence (P27986 whole entry partner): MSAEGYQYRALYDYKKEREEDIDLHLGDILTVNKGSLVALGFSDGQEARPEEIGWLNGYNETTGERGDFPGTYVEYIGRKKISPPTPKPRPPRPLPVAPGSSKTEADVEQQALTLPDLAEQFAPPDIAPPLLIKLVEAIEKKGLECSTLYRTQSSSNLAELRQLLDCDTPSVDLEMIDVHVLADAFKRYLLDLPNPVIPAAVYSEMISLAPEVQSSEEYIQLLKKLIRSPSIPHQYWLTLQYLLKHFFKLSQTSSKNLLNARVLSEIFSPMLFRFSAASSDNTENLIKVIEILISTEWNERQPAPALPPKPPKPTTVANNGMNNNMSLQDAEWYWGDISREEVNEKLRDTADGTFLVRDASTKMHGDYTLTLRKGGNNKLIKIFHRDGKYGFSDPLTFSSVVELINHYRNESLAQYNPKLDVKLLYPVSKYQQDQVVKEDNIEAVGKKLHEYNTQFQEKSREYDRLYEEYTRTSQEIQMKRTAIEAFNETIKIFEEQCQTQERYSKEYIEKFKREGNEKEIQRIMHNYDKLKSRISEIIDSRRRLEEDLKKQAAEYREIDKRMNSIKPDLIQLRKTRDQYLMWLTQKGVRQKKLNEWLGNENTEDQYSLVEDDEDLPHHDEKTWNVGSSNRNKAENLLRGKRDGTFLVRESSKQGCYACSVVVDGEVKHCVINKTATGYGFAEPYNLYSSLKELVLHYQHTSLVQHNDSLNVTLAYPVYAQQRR

[3] = target: T3, PI3K δ (Homo sapiens, UniProt O00329); assay: PI 3-Kinase (human) HTRF assay, PI3K δ; settings: read-out: PI3K δ IC50
T3 construct: purchased Upstate / Millipore Corporation
T3 sequence (O00329 whole entry): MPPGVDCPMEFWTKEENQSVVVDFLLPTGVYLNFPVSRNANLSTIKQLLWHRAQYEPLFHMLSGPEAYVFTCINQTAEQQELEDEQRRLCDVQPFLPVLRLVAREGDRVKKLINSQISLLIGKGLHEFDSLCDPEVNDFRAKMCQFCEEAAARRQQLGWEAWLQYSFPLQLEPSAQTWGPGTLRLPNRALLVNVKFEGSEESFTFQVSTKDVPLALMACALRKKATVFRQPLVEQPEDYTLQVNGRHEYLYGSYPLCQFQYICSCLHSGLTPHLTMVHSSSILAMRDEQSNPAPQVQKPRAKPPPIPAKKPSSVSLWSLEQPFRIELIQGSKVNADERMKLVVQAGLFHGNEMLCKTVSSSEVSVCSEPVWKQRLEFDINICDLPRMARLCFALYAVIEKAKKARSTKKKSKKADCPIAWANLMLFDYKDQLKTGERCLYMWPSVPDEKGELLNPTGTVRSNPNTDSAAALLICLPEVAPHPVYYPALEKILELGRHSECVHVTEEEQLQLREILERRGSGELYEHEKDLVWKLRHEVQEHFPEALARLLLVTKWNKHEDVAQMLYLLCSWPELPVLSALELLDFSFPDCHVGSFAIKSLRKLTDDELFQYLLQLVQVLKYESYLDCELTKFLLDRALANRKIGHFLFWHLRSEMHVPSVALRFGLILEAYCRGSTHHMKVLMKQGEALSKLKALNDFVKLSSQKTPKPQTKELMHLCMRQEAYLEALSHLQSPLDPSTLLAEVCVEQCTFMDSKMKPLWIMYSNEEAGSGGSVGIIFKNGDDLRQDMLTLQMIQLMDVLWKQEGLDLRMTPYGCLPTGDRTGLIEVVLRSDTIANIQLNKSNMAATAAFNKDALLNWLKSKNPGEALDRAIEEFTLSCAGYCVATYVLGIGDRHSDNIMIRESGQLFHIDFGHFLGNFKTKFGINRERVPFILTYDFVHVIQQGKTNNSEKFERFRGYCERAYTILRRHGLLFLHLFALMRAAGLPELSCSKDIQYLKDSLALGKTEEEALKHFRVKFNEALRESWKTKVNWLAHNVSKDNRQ
T3 sequence (P27986 whole entry partner): as the sequence (P27986 whole entry partner) above

[4] = target: T4, PI3K γ (p110γ) (Homo sapiens, UniProt P48736); assay: PI 3-Kinase (human) HTRF assay, PI3K γ; settings: read-out: PI3K γ IC50
T4 construct: purchased Upstate / Millipore Corporation
T4 sequence (P48736 whole entry): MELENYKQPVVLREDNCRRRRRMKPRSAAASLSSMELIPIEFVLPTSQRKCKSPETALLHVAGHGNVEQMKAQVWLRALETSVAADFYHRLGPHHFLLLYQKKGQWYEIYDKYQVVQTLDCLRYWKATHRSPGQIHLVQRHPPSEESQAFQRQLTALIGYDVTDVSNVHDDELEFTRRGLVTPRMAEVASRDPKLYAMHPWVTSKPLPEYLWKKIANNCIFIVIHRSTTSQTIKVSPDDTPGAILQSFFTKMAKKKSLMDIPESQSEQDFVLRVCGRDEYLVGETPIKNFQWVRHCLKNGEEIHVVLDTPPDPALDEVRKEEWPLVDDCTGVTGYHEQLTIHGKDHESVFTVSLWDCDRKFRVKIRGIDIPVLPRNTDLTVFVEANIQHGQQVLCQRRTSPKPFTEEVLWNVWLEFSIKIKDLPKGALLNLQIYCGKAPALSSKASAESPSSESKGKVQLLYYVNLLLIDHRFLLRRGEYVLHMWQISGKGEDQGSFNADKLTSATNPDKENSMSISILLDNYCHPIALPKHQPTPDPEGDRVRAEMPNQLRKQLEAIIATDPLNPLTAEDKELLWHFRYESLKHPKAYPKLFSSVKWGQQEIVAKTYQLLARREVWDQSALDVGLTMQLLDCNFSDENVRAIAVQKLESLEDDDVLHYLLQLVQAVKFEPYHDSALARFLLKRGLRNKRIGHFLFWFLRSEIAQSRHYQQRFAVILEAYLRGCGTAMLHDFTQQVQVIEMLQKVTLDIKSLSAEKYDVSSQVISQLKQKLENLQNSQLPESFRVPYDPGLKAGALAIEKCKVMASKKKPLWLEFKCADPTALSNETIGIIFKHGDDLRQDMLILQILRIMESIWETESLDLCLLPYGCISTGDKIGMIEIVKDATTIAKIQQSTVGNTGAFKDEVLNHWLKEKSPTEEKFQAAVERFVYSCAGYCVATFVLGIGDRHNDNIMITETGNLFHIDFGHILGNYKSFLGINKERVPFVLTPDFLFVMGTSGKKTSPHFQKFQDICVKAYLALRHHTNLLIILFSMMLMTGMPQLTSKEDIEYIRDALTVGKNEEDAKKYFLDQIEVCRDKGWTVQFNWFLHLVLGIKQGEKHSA
Method: Briefly, the assay is a time resolved FRET assay that indirectly measures PIP3 product formed by the activity of a PI3-K. The kinase reaction is performed in a microtiter plate (e.g., a 384 well microtiter plate). The total reaction volume is approximately 20 ul per well. In the first step, each well receives 2 ul of test compound in 20% dimethylsulphoxide resulting in a 2% DMSO final concentration. […] The plate is sealed and incubated for 15 minutes at room temperature. […] The plate is sealed and incubated for 1 hour at room temperature. The reaction is stopped by adding 5 ul of Stop Solution per well and then 5 ul of Detection Mix is added per well. The plate is sealed, incubated for 1 hour at room temperature, and then read on an appropriate plate reader. Data is analyzed and IC50s are generated using GraphPad Prism 5.

T1 sequence (P42336 whole entry): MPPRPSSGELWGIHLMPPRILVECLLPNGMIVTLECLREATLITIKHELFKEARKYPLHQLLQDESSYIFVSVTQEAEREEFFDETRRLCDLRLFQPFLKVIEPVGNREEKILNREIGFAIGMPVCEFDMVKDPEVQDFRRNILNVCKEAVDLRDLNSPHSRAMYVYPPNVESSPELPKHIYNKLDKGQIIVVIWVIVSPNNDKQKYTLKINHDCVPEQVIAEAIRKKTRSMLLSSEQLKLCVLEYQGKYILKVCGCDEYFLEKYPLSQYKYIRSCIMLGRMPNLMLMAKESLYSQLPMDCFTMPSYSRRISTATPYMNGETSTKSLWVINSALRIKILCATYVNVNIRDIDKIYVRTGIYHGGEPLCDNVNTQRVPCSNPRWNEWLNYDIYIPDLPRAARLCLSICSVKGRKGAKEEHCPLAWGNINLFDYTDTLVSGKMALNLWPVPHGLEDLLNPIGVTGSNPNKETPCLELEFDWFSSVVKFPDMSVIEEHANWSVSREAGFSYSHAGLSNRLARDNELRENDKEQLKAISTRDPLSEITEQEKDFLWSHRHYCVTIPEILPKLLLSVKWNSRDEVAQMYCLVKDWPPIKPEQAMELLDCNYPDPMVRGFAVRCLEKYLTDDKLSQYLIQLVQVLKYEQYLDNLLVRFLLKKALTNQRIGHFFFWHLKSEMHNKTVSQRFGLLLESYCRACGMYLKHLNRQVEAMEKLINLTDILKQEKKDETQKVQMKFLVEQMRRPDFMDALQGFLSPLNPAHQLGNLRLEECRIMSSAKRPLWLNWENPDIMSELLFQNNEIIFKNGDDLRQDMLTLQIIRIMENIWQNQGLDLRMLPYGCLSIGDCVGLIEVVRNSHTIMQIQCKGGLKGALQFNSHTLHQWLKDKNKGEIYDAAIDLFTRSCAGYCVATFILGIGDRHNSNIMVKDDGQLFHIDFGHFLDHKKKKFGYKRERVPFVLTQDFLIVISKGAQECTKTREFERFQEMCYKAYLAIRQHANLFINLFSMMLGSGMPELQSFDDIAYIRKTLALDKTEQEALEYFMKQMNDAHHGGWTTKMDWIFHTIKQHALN
T1 sequence (P27986 whole entry partner): as the sequence (P27986 whole entry partner) above

In the case of CN(C)C1CCN(c2cnc3ccc(-c4ccc5oc(N)nc5c4)cc3n2)CC1 [Compound 172], the IC50 [1] is reported as < 100 nM, the IC50 [2] is reported as < 100 nM and the IC50 [3] is reported as < 100 nM. For the same molecule, the IC50 [4] was < 1000 nM.
In the case of Cc1nccn1-c1cnc2ccc(-c3ccc4oc(N)nc4c3)cc2n1 [Compound 174], the IC50 [1] is reported as < 100 nM, the IC50 [2] is reported as < 1000 nM and the IC50 [3] is reported as < 10000 nM. For the same molecule, the IC50 [4] was < 100 nM.
With Nc1nc2cc(-c3ccc4ncc(N5CCCC5)nc4c3)ccc2o1 [Compound 176] the IC50 [1] was < 100 nM, the IC50 [2] was < 1000 nM and the IC50 [3] was < 1000 nM. The IC50 [4] was < 100 nM.
For Nc1nc2cc(-c3ccc4ncc(-c5ccccc5)nc4c3)ccc2o1 [Compound 180], the IC50 [1] was < 1000 nM, the IC50 [2] was > 10000 nM and the IC50 [3] was > 10000 nM. The IC50 [4] was > 10000 nM.
In the case of CS(=O)(=O)CCN1CCC(Nc2cnc3ccc(-c4ccc5oc(N)nc5c4)cc3n2)CC1 [Compound 181], the IC50 [1] is reported as < 100 nM, the IC50 [2] is reported as < 10000 nM and the IC50 [3] is reported as < 1000 nM. The IC50 [4] was < 100 nM.
CC(C)(C)N1CCN(c2cnc3ccc(-c4ccc5oc(N)nc5c4)cc3n2)CC1 [Compound 182] was tested, and the IC50 [1] was < 100 nM, the IC50 [2] was < 1000 nM and the IC50 [3] was < 1000 nM. For the same molecule, the IC50 [4] was < 1000 nM.
CCn1cnc2ccc(-c3ccc4oc(N)nc4c3)cc2c1=O [Compound 183] was tested, and the IC50 [1] was < 100 nM, the IC50 [2] was < 10000 nM and the IC50 [3] was < 10000 nM. For the same molecule, the IC50 [4] was < 100 nM.
With Nc1nc2cc(-c3ccc4ncn(CCO)c(=O)c4c3)ccc2o1 [Compound 184] the IC50 [1] was < 100 nM, the IC50 [2] was < 10000 nM and the IC50 [3] was > 10000 nM. The IC50 [4] was < 1000 nM.
Cc1ncccc1-c1cnc2ccc(-c3ccc4oc(N)nc4c3)cc2n1 [Compound 185] was tested, and the IC50 [1] was < 1000 nM, the IC50 [2] was > 10000 nM and the IC50 [3] was > 10000 nM. For the same molecule, the IC50 [4] was > 10000 nM.
For Nc1nc2cc(-c3ccc4ncc(C(=O)N5CCCC5)n4c3)ccc2o1 [Compound 186], the IC50 [1] was < 100 nM, the IC50 [2] was < 10000 nM and the IC50 [3] was < 1000 nM. For the same molecule, the IC50 [4] was < 100 nM.
For Nc1nc2cc(-c3ccc4ncc(C(=O)NC5CC5)n4c3)ccc2o1 [Compound 187], the IC50 [1] was < 100 nM, the IC50 [2] was < 10000 nM and the IC50 [3] was < 1000 nM. The IC50 [4] was < 100 nM.
With Nc1nc2cc(-c3ccc4ncc(C(=O)NCCO)n4c3)ccc2o1 [Compound 189] the IC50 [1] was < 100 nM, the IC50 [2] was < 1000 nM and the IC50 [3] was < 1000 nM. For the same molecule, the IC50 [4] was < 1000 nM.
With CC(C)(C)N1CCN(C(=O)c2cnc3ccc(-c4ccc5oc(N)nc5c4)cn23)CC1 [Compound 191] the IC50 [1] was < 100 nM, the IC50 [2] was < 10000 nM and the IC50 [3] was < 10000 nM. The IC50 [4] was < 10000 nM.
NCC(=O)N1CCN(c2cnc3ccc(-c4ccc5oc(N)nc5c4)cc3n2)CC1 [Compound 192] was tested, and the IC50 [1] was < 100 nM, the IC50 [2] was < 1000 nM and the IC50 [3] was < 1000 nM. The IC50 [4] was < 1000 nM.
For COC(=O)N1CCN(c2cnc3ccc(-c4ccc5oc(N)nc5c4)cc3n2)CC1 [Compound 193], the IC50 [1] was < 100 nM, the IC50 [2] was < 1000 nM and the IC50 [3] was < 10000 nM. The IC50 [4] was < 100 nM.
Cc1ccc(-c2cnc3ccc(-c4ccc5oc(N)nc5c4)cc3n2)cn1 [Compound 194] was tested, and the IC50 [1] was < 100 nM, the IC50 [2] was > 10000 nM and the IC50 [3] was > 10000 nM. The IC50 [4] was < 100 nM.
Nc1nc2cc(-c3ccc4ncc(-c5ccccn5)nc4c3)ccc2o1 [Compound 195] was tested, and the IC50 [1] was < 1000 nM, the IC50 [2] was < 10000 nM and the IC50 [3] was > 10000 nM. For the same molecule, the IC50 [4] was < 100 nM.
With Nc1nc2cc(-c3ccc4ncc(C(=O)N5CCCCC5)n4c3)ccc2o1 [Compound 196] the IC50 [1] was < 1000 nM, the IC50 [2] was < 10000 nM and the IC50 [3] was > 10000 nM. The IC50 [4] was < 10000 nM.
For Nc1nc2cc(-c3ccc4ncc(C(=O)N5CCC5)n4c3)ccc2o1 [Compound 197], the IC50 [1] was < 100 nM, the IC50 [2] was < 10000 nM and the IC50 [3] was < 10000 nM. The IC50 [4] was < 100 nM.
With CS(=O)(=O)CCN1CCC(NC(=O)c2cnc3ccc(-c4ccc5oc(N)nc5c4)cn23)CC1 [Compound 199] the IC50 [1] was < 100 nM, the IC50 [2] was < 10000 nM and the IC50 [3] was < 100 nM. For the same molecule, the IC50 [4] was < 100 nM.
With Nc1nc2cc(-c3ccc4ncc(C(=O)N5CC(O)C5)n4c3)ccc2o1 [Compound 200] the IC50 [1] was < 100 nM, the IC50 [2] was < 10000 nM and the IC50 [3] was < 10000 nM. For the same molecule, the IC50 [4] was < 100 nM.
With CC1CN(C(=O)c2cnc3ccc(-c4ccc5oc(N)nc5c4)cn23)CCO1 (stereo not shown) [Compound 201] the IC50 [1] was < 100 nM, the IC50 [2] was < 10000 nM and the IC50 [3] was > 10000 nM. The IC50 [4] was < 10000 nM.
CN1CCC(NC(=O)c2cnc3ccc(-c4ccc5oc(N)nc5c4)nn23)CC1 [Compound 203] was tested, and the IC50 [1] was < 100 nM, the IC50 [2] was < 100 nM and the IC50 [3] was < 1000 nM. For the same molecule, the IC50 [4] was < 100 nM.
In the case of Nc1nc2cc(-c3ccc4ncn(C5CCC5)c(=O)c4c3)ccc2o1 [Compound 205], the IC50 [1] is reported as < 100 nM, the IC50 [2] is reported as > 10000 nM and the IC50 [3] is reported as > 10000 nM. The IC50 [4] was > 10000 nM.
With CC(C)n1cnc2ccc(-c3ccc4oc(N)nc4c3)cc2c1=O [Compound 206] the IC50 [1] was < 100 nM, the IC50 [2] was > 10000 nM and the IC50 [3] was > 10000 nM. For the same molecule, the IC50 [4] was < 1000 nM.
